Target: SK2 subtype channels (Rattus norvegicus, UniProt P70604)
Experiment: not given
Details: patch clamp; cited from earlier work

Compound	block of SK2 channel currents
CN(C)CCCN1c2ccccc2Sc2ccc(Cl)cc21 [chlorpromazine]	block SK2 channel currents with micromolar affinity

Target: hSK2 (Homo sapiens, UniProt Q9H2S1)
Experiment: 86Rb+ efflux assay for compound activity towards hSK channels
Format: cell-based
Details: 86Rb+ efflux stimulated with calcium ionophore; drug 0.01 to 30 μM in EBSS; read-out: hSK2 Inhibitory Activity

Compound	IC50 [nM]
CN1CCN(c2ccc(Nc3nc(-c4nccs4)cs3)nc2)CC1 [[2,4′]Bithiazolyl-2′-yl-[5-(4-methyl-piperazin-1-yl)-pyridin-2-yl]-amine]	1000 to 30000
Brc1sc(Nc2ccccn2)nc1-c1ccccn1 [(5-Bromo-4-pyridin-2-yl-thiazol-2-yl)-pyridin-2-yl-amine]	1000 to 30000
Cc1cnc(Nc2nc(-c3ccccn3)cs2)c(Br)c1 [(3-Bromo-5-methyl-pyridin-2-yl)-(4-pyridin-2-yl-thiazol-2-yl)-amine]	1000 to 30000
CCCCCCc1ccc(Nc2nc(-c3ccccn3)cs2)nc1 [(5-Hexyl-pyridin-2-yl)-(4-pyridin-2-yl-thiazol-2-yl)-amine]	1000 to 30000
C=C(C)c1ccc(Nc2nc(-c3nccs3)cs2)nc1 [[2,4′]Bithiazolyl-2′-yl-(5-isopropenyl-pyridin-2-yl)-amine]	1000 to 30000
Cc1cc(I)cnc1Nc1nc(-c2ccccn2)cs1 [(5-Iodo-3-methyl-pyridin-2-yl)-(4-pyridin-2-yl-thiazol-2-yl)-amine]	100 to 1000
c1ccc(Nc2nc(-c3ccccn3)cs2)nc1 [Pyridin-2-yl-(4-pyridin-2-yl-thiazol-2-yl)-amine]	< 30
c1cncc(-c2ccc(Nc3nc(-c4nccs4)cs3)nc2)c1 [[3,3′]Bipyridinyl-6-yl-[2,4′]bithiazolyl-2′-yl-amine]	1000 to 30000
O=C1CCCN1c1ccc(Nc2nc(-c3nccs3)cs2)nc1 [1-[6-([2,4′]Bithiazolyl-2′-ylamino)-pyridin-3-yl]-pyrrolidin-2-one]	30 to 100
Cc1cc(C)nc(Nc2nc(-c3ccccn3)cs2)c1 [(4,6-Dimethyl-pyridin-2-yl)-(4-pyridin-2-yl-thiazol-2-yl)-amine]	1000 to 30000
c1ccc(Nc2csc(Nc3ccccn3)n2)nc1 [N^2,N^4-Di-pyridin-2-yl-thiazole-2,4-diamine]	1000 to 30000
[(4-Methyl-pyridin-2-yl)-(4-pyridin-2-yl-thiazol-2-yl)-amine]2 Zn(II) nHCl Complex	< 30
Cc1ccnc(Nc2nc(-c3c(C)nc4ncccn34)cs2)c1 [[4-(2-Methyl-imidazo[1,2-a]pyrimidin-3-yl)-thiazol-2-yl]-(4-methyl-pyridin-2-yl)-amine]	1000 to 30000
CC(C)(C)c1ccc(Nc2nc(-c3ccccn3)cs2)nc1 [(5-tert-Butyl-pyridin-2-yl)-(4-pyridin-2-yl-thiazol-2-yl)-amine]	1000 to 30000
Cc1ccc(Nc2nc(-c3cnccn3)cs2)nc1 [(5-Methyl-pyridin-2-yl)-(4-pyrazin-2-yl-thiazol-2-yl)-amine]	30 to 100
O=[N+]([O-])c1ccc(Nc2nc(-c3nccs3)cs2)nc1 [[2,4′]Bithiazolyl-2′-yl-(5-nitro-pyridin-2-yl)-amine]	1000 to 30000
CC(C)c1ccc(Nc2nc(-c3cnccn3)cs2)nc1 [(5-Isopropyl-pyridin-2-yl)-(4-pyrazin-2-yl-thiazol-2-yl)-amine]	1000 to 30000
Cc1sc(Nc2ccccn2)nc1-c1ccccn1 [(5-Methyl-4-pyridin-2-yl-thiazol-2-yl)-pyridin-2-yl-amine]	< 30
Cc1ccnc(Nc2nc(-c3c(C)nc4ccccn34)cs2)c1 [[4-(2-Methyl-imidazo[1,2-a]pyridin-3-yl)-thiazol-2-yl]-(4-methyl-pyridin-2-yl)-amine]	1000 to 30000
c1ccc(-c2ccc(Nc3nc(-c4ccccn4)cs3)nc2)cc1 [(5-Phenyl-pyridin-2-yl)-(4-pyridin-2-yl-thiazol-2-yl)-amine]	1000 to 30000
O=C1CCCN1c1ccc(Nc2nc(-c3cnccn3)cs2)nc1 [1-[6-(4-Pyrazin-2-yl-thiazol-2-ylamino)-pyridin-3-yl]-pyrrolidin-2-one]	< 30
CC1CCN(c2ccc(Nc3nc(-c4ccccn4)cs3)nc2)CC1 [(4-Methyl-3,4,5,6-tetrahydro-2H-[1,3′]bipyridinyl-6′-yl)-(4-pyridin-2-yl-thiazol-2-yl)-amine]	30 to 100
Brc1ccc(Nc2nc(-c3nccs3)cs2)nc1 [[2,4′]Bithiazolyl-2′-yl-(5-bromo-pyridin-2-yl)-amine]	1000 to 30000
COC(=O)c1ccc(Nc2nc(-c3ccccn3)cs2)nc1 [6-(4-Pyridin-2-yl-thiazol-2-ylamino)-nicotinic acid methyl ester]	1000 to 30000
Cc1ccnc(Nc2nc(-c3cc(C)ccn3)cs2)c1 [(4-Methyl-pyridin-2-yl)-[4-(4-methyl-pyridin-2-yl)-thiazol-2-yl]-amine]	30 to 100

Compound	IC50 [nM]
COc1ccc(Nc2nc(-c3nccs3)cs2)nc1 [[2,4′]Bithiazolyl-2′-yl-(5-methoxy-pyridin-2-yl)-amine]	100 to 1000
COc1sc(Nc2ccccn2)nc1-c1ccccn1 [(5-Methoxy-4-pyridin-2-yl-thiazol-2-yl)-pyridin-2-yl-amine]	1000 to 30000
C=C(C)c1ccc(Nc2nc(-c3cnccn3)cs2)nc1 [(5-Isopropenyl-pyridin-2-yl)-(4-pyrazin-2-yl-thiazol-2-yl)-amine]	100 to 1000
c1ccc(-c2csc(Nc3ccc(N4CCOCC4)cn3)n2)nc1 [(5-Morpholin-4-yl-pyridin-2-yl)-(4-pyridin-2-yl-thiazol-2-yl)-amine]	30 to 100
c1csc(-c2csc(Nc3ccc(N4CCOCC4)cn3)n2)n1 [[2,4′]Bithiazolyl-2′-yl-(5-morpholin-4-yl-pyridin-2-yl)-amine]	100 to 1000
Clc1ccc(Nc2nc(-c3nccs3)cs2)nc1 [[2,4′]Bithiazolyl-2′-yl-(5-chloro-pyridin-2-yl)-amine]	1000 to 30000
c1csc(-c2ccc(Nc3nc(-c4nccs4)cs3)nc2)c1 [[2,4′]Bithiazolyl-2′-yl-(5-thiophen-2-yl-pyridin-2-yl)-amine]	1000 to 30000
Cc1ccnc(Nc2nc(-c3cnccn3)cs2)c1 [(4-Methyl-pyridin-2-yl)-(4-pyrazin-2-yl-thiazol-2-yl)-amine]	30 to 100
CC(C)c1ccc(Nc2nc(-c3ccccn3)cs2)nc1 [(5-Isopropyl-pyridin-2-yl)-(4-pyridin-2-yl-thiazol-2-yl)-amine]	30 to 100
Fc1ccc(Nc2nc(-c3ccccn3)cs2)nc1 [(5-Fluoro-pyridin-2-yl)-(4-pyridin-2-yl-thiazol-2-yl)-amine]	1000 to 30000
c1ccc(-c2csc(Nc3nc4ccccc4[nH]3)n2)nc1 [(1H-Benzoimidazol-2-yl)-(4-pyridin-2-yl-thiazol-2-yl)-amine]	100 to 1000
CN1CCN(c2ccc(Nc3nc(-c4cnccn4)cs3)nc2)C(=O)C1 [4-Methyl-1-[6-(4-pyrazin-2-yl-thiazol-2-ylamino)-pyridin-3-yl]-piperazin-2-one]	1000 to 30000
c1ccc(Nc2nc(-c3cccs3)cs2)nc1 [Pyridin-2-yl-(4-thiophen-2-yl-thiazol-2-yl)-amine]	1000 to 30000
Cc1cc(Nc2nc(-c3ccccn3)cs2)ncc1I [(5-Iodo-4-methyl-pyridin-2-yl)-(4-pyridin-2-yl-thiazol-2-yl)-amine]	100 to 1000
CC(C)c1ccc(Nc2nc(-c3nccs3)cs2)nc1 [[2,4′]Bithiazolyl-2′-yl-(5-isopropyl-pyridin-2-yl)-amine]	1000 to 30000
[(4-Methyl-pyridin-2-yl)-(4-pyridin-2-yl-thiazol-2-yl)-amine]2 Fe(II) nH2ClO4 Complex	< 30
CN1CCN(c2ccc(Nc3nc(-c4ccccn4)cs3)nc2)C(=O)C1 [4-Methyl-1-[6-(4-pyridin-2-yl-thiazol-2-ylamino)-pyridin-3-yl]-piperazin-2-one]	1000 to 30000
Cc1ccnc(Nc2nc(-c3c(C)nc4cc(C)ccn34)cs2)c1 [[4-(2,7-Dimethyl-imidazo[1,2-a]pyridin-3-yl)-thiazol-2-yl]-(4-methyl-pyridin-2-yl)-amine]	1000 to 30000
Cc1ccnc(Nc2nc(-c3nccs3)cs2)c1 [[2,4′]Bithiazolyl-2′-yl-(4-methyl-pyridin-2-yl)-amine]	100 to 1000
c1ccc(-c2csc(Nc3nccs3)n2)nc1 [(4-Pyridin-2-yl-thiazol-2-yl)-thiazol-2-yl-amine]	1000 to 30000
Brc1ccc(Nc2nc(-c3ccccn3)cs2)nc1 [(5-Bromo-pyridin-2-yl)-(4-pyridin-2-yl-thiazol-2-yl)-amine]	1000 to 30000
CSc1sc(Nc2ccccn2)nc1-c1ccccn1 [(5-Methylsulfanyl-4-pyridin-2-yl-thiazol-2-yl)-pyridin-2-yl-amine]	1000 to 30000
Cc1ccnc(Nc2nc(-c3ccccn3)c(Cl)s2)c1 [(5-Chloro-4-pyridin-2-yl-thiazol-2-yl)-(4-methyl-pyridin-2-yl)-amine]	100 to 1000
Nc1ccc(Nc2nc(-c3nccs3)cs2)nc1 [N^2-[2,4′]Bithiazolyl-2′-yl-pyridine-2,5-diamine]	30 to 100
FC(F)(F)c1ccc(Nc2nc(-c3ccccn3)cs2)nc1 [(4-Pyridin-2-yl-thiazol-2-yl)-(5-trifluoromethyl-pyridin-2-yl)-amine]	1000 to 30000

Same assay, conditions: read-out: hSK2 Inhibitory Activity

Compound	IC50 [nM]
c1ccc(-c2csc(Nc3ncccn3)n2)nc1 [(4-Pyridin-2-yl-thiazol-2-yl)-pyrimidin-2-yl-amine]	1000 to 30000

Target: T1, recombinant human SK4 (hIK1 or hKCa4) channels (Homo sapiens, UniProt O15554+P0DP23)
T1 construct: host or cells: HEK 293
Experiment: not given
Details: applied to the inside of SK4 channel-expressing membrane patches; cited from earlier work

Compound	activation of SK4 channels
[Pb+2] [lead]	activated SK4 channels in a concentration-dependent manner
[Ba+2] [Barium]	activated SK4 channels in a concentration-dependent manner
[Zn+2] [zinc]	did not activate
[Mg+2] [magnesium]	did not activate
[Co+2] [cobalt]	did not activate
[Ca+2] [calcium]	activated SK4 channels in a concentration-dependent manner
[Cd] [cadmium]	activated SK4 channels in a concentration-dependent manner
[Fe] [iron]	did not activate
[Sr+2] [strontium]	activated SK4 channels in a concentration-dependent manner

Source: patent US20050227989A1, “Polycyclic thiazoles as potassium ion channel modulators” (ICAgen, Inc., priority 2004, published 2005)
